Patent publication US20140024041A1, “SOFT SUBSTRATE FOR CELL CULTURE AND PROCESS FOR PREPARING THE SAME” (COMMISSARIAT A L'ENERGIE ATOMIQUE ET AUX ENERGIES …, priority 2011, published 2014)

What was measured:
MCF10A cells = assay: Cell traction force measurement from crossbow micropattern bar shortening on PAA; type: cell-based, human
Protocol: Non-tumorigenic human epithelial cells from the mammary gland, MCF10A, were plated on the micropatterned PAA substrates. Cells specifically attached to the fibronectin coated micropatterns since non-exposed PAA regions prevented protein adsorption (FIG. 2D). The effect of micropattern geometry on cell traction forces orientation was tested on various shapes: disc, pacman and crossbow (FIG. 3A). Spread cells exerted traction forces on the micropattern that could be measured by looking at the displacement of fluorescent beads embedded in the PAA gel (see FIG. 3B and Material and Methods). Particle Image Velocimetry followed by individual particle tracking were used to measure bead displacements ((Marganski et al (2003) Methods Enzymol 361:197-211; Sabass et al (2008) Biophys J 94(1):207-220). Force fields were calculated from the bead displacement fields by using the Fourier transform traction cytometry ((Sabass et al, supra; Butler et al (2002) Am J Physiol Cell Physiol 282(3):C595-605). Force fields exerted by individual cells were overlaid and averaged to quantify their reproducibility (FIG. 3C, D). On homogeneously coated regions cells developed forces that were randomly distributed from one cell to the other. In cells constrained on disc shaped micropatterns, forces were still randomly oriented but their magnitudes were lowered due to reduced cell spreading. In cells constrained on pacman shaped micropatterns, forces distribution was geometrically biased due to enhanced cell contraction above non adhesive regions. […] Importantly, most of the traction forces were reproducibly oriented upward, along the straight adhesive bar on the extremity of which the inventors measured the highest pressure (FIG. 3D). […]
When actin cables have an unpredictable spatial distribution, a given deformation cannot be directly assigned to a defined force magnitude. […] When the deformation was measured along the shortest, and therefore most contracted, cell axis, the correlation was improved (FIG. 4C). […]

[1] = system: MCF10A expressing inducible ErbB2 receptor; assay: Cell traction force measurement from crossbow micropattern shortening, ErbB2 inducible cells; type: cell-based, human; details: ErbB2 receptors activated with ligand, 1 μM, 48 hr before measurement, FIG. 5C
Excerpt: When actin cables have an unpredictable spatial distribution, a given deformation cannot be directly assigned to a defined force magnitude. Indeed, forces applied on adjacent adhesion sites both affect local deformations, due to the continuous nature of the substrate. Each deformation results from local and distant forces. So the calculation of the force field is highly dependent on the spatial distribution of force application sites and the relationship between deformation and forces varies from one cell to the other. The inventors hypothesized that in cells developing a reproducible architecture and a controlled pattern of force application, a given local deformation could be assigned to a defined value of the contractile force. […] When the deformation was measured along the shortest, and therefore most contracted, cell axis, the correlation was improved (FIG. 4C). […] On the crossbow, a single image acquisition was sufficient to measure the bar length and read the corresponding average cell traction force using the calibration curve (FIG. 5F). […]
The culture of MCF10A cells and the generation of ΔCK2β cell line were described previously (Deshiere et al (2008) Mol Cell Biochem 316(1-2):107-113). […] Substrate relaxation was assessed by detaching cells with trypsin. […]

Molecule: TGFb1: known to induce epithelial to mesenchymal transition; from R&D systems
- level of cell contraction vs WT cells (crossbow shortening) (MCF10A cells; 2 ng/mL for 2 days before plating, FIG. 5C): significantly higher level of cell contraction

Molecule: Cc1ccc2c(c1)C(=O)C1(O)CCN(c3ccccc3)C1=N2 (stereo not shown) [Blebbistatin]
- force magnitude decrease over time (MCF10A cells; 50 μM, single cell, FIG. 5B): follows a single exponential decay
- force inhibition profile in response to increasing dose (MCF10A cells; increasing dose, crossbow bar length, FIG. 5A): matched the myosin II inhibition profile

Molecule: CCC(C)(C)C(=O)C(=O)N1CCCC[C@H]1C(=O)O[C@H](CCc1ccc(OC)c(OC)c1)c1cccc(OCC(=O)NCCNC(=O)COc2cccc([C@@H](CCc3ccc(OC)c(OC)c3)OC(=O)[C@@H]3CCCCN3C(=O)C(=O)C(C)(C)CC)c2)c1 [AP 1510]
- level of cell contraction vs WT cells [1]: no significant changes
